Source: patent US5231182A, “Method of making certain aryl containing amides” (American Cyanamid Company, priority 1991, dated 1993)

Assays:
[1] = tested on: Endotoxin induced shock and mortality; assay: Endotoxin induced shock and mortality in mice: high dose acute mouse endotoxemia; assay type: in vivo, Male Balb/c mice; details: administered ip prior to a lethal ip injection of endotoxin
Excerpt: (§1) Endotoxin administration produces a shock-like state characterized by vascular permeability changes, hypotension, neutropenia, thrombocytopenia,multiple organ damage and death. The major mediators released after endotoxin injection are TNF (tumor necrosis factor), PAF (platelet activating factor) and […] (interleukin I). PAF administration mimics the signs and symptoms of endotoxin induced shock and death and endotoxin also induces the release of PAF. Therefore, the effects of endotoxin should be blocked with a PAF antagonist.
(§2) Male Balb/c mice (approximately 20 g) are obtained from Charles River Laboratories and used after a one-two week acclimation period. Animals are given (ip) test compound dissolved in saline or water (sonicated and heated) at different time intervals prior to and after the ip injection of endotoxin (usually 2 hours before LPS endotoxin, and 3-4 hours after). Sigma E. Coli endotoxin, 0111:B4, phenol extraction, catalog #L2630 is used for these studies.
This LD value is approximately 50 mg/kg i.p. The number of survivors in each group (control or treated with test compound) is recorded after 24, 48 or 72 hours and the treated groups (receiving test compound and endotoxin) are compared with the untreated, control group (receiving endotoxin only) or saline control (receiving saline and endotoxin).
Effect of Compounds Given I.P. in High Dose Acute Mouse Endotoxemia […]

PAF receptor = biological target: T1, PAF receptor (Oryctolagus cuniculus, UniProt G1TEI7); assay: Platelet Activating Factor antagonism in vitro: inhibition of PAF induced platelet aggregation in rabbit platelet rich plasma; assay type: cell-based, rabbit (New Zealand White); details: for % INH (inhibition of PAF induced platelet aggregation): dose .00001 M
T1 construct: centrifuged at 800 rpm for 10-15 minutes at room temperature to recover the platelet rich plasma (PRP); endogenous in cells; host or cells: platelets in citrated platelet rich plasma from male New Zealand White rabbits (Oryctolagus cuniculus)
Protocol: Test compounds are evaluated as PAF receptor antagonists in vitro by measuring inhibition of PAF (platelet activating factor) induced platelet aggregation. Platelet aggregation is measured by a modification of the method described in […], et. al., J. Med. Chem., 27 1174, 1984. […] All syringes and pipets are plastic. The blood is gently mixed and immediately centrifuged at 800 rpm for 10-15 minutes at room temperature to recover the platelet rich plasma (PRP). Platelet poor plasma (PPP) is prepared by centrifuging PRP at 2800 rpm for 10 minutes at room temperature. Dilutions (1:3000) of PRP in Isoton® diluent are made and platelet counts are determined on a Coulter Thrombocounter which is standardized with platelet reference standards (Interscience Platelet Control, Portland, Oreg.). PRP platelet counts are adjusted to approximately 400,000-500,000 platelets/μl by the addition of PPP. L-PAF (Platelet Activating Factor) is obtained from Calbiochem. […] All solutions are made up in plastic tubes, stored on ice and protected from heat and light. Solutions are prepared fresh or frozen at -20° C. and used within 48 hours. Incubation mixtures consisted of 400 μl PRP, 50 μl of saline diluent or test compound and 50 μl of PAF agonist. More specifically, 400 μl of PRP is stabilized in a cuvette for 1-2 minutes at 37° C. in the aggregometer to achieve a stable baseline, then 50 μl of saline or test compound is added and incubated for 5 minutes before addition of the challenge concentration of PAF. A submaximal concentration is determined from the dose response curve for PAF for that experiment. In general, the challenge concentration is 5E-8 or IE-7M. Aggregation is monitored for 5 minutes. Samples containing test compound or diluent are run simultaneously for comparison. Test compounds are initially evaluated at a screening concentration of 1E-5M. […] The recording equipment consists of a dual channel Chronolog aggregometer connected to a dual channel 10MV full scale deflection Omniscribe chart recorder (Houston Instruments). The chart recorder is calibrated daily with the use of a suspension of Bio-Rad latex beads (S-X 12 400 mesh) which has a density slightly greater than rabbit PRP. […] These limits defined a full scale deflection. The aggregation traces are analyzed by a digitizing method (C. Kohler and B. Zoltan, J. Pharm. Methods, 12, 113, 1984) with x, y coordinate data stored in a computer file. A suitable program computes parameters of interest such as the magnitude of aggregation. | ^a dose of compound that gives the indicated % inhibition. | ^b the % inhibition of PAF induced platelet aggregation. | ^c the molar concentration of compound that will inhibit 50% of the | platelet aggretation induced by PAF given at the indicated PAF challenge | concentration.

PAF induced lethality = PAF induced lethality in mice; assay type: in vivo; details: PAF 150 μg/kg IV
Protocol: PAF given I.V. to mice causes an immediate hypotensive shock leading to death in 1 hour or less. Compounds are given intraperitoneally or P.O. at various times before the PAF challenge. Animals alive after 2 hours are counted and the activity of test compounds expressed as % survival corrected for any control (saline treated) animals which survived the PAF challenge.
Effect of Compound Given I.V. or P.O. in Protecting
Mice from a Lethal Challenge of PAF^a
^a lethal challenge of PAF is 150 μg/kg IV.

[2] = tested on: Endotoxin induced shock and mortality; assay: Endotoxin induced shock and mortality in mice: low dose, chronic mouse endotoxemia; assay type: in vivo, Male Balb/c mice
Excerpt: as §1, §2
For the chronic endotoxin shock model, a lower dose of endotoxin is administered (generally 15 to 20 mg/kg i.p). This dose gives an LD80 in two to four days following LPS administration. Test compounds are given 2 hours before LPS and 3-4 hours after on the first day, followed by 3 or 4 consecutive days of BID dosing. The number of survivors in each group is recorded each day for a period of 5 to 7 days.
Effect of Compounds Given i.p. in Low Dose, Chronic Mouse Endoxemia

T1 sequence (G1TEI7 1-342): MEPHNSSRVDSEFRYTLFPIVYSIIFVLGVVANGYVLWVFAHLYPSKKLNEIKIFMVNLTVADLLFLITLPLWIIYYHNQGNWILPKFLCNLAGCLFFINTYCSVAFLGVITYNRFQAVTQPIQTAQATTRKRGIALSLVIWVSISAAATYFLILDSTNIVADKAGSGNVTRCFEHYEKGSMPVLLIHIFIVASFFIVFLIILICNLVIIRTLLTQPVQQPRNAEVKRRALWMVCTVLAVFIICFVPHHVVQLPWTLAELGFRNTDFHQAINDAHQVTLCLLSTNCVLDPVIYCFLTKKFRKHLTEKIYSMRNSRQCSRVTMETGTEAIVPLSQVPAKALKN

Structure (SMILES) | % Survival (PAF induced lethality; P.O. 5 mg/kg) [%] | % Survival (PAF induced lethality; P.O. 20 mg/kg) [%] | % Survival ([2]; day 0, dose 10 mg/kg i.p.) [%] | No Surv./tot. ([2]; day 0, dose 10 mg/kg i.p.) | % Survival ([2]; day 1, dose 10 mg/kg i.p.) [%] | No Surv./tot. ([2]; day 1, dose 10 mg/kg i.p.) | % Survival ([2]; day 2, dose 10 mg/kg i.p.) [%] | No Surv./tot. ([2]; day 2, dose 10 mg/kg i.p.) | % Survival ([2]; day 3, dose 10 mg/kg i.p.) [%] | No Surv./tot. ([2]; day 3, dose 10 mg/kg i.p.) | % Survival ([2]; day 4, dose 10 mg/kg i.p.) [%] | No Surv./tot. ([2]; day 4, dose 10 mg/kg i.p.) | % Survival ([2]; day 5, dose 10 mg/kg i.p.) [%] | No Surv./tot. ([2]; day 5, dose 10 mg/kg i.p.) | No Surv./tot. ([2]; day 6, dose 10 mg/kg i.p.) | other results
CCCCCCCCCCCCCCOc1cccc(CC(=O)Nc2cccc(C[n+]3csc(C)c3)c2)c1.[Br-] [5-Methyl-3-[[3-[[[3-(tetradecyloxy)phenyl]acetyl]amino]phenyl]methyl]thiazolium bromide] | 40 | 59 | 100 | 30/30 | 100 | 30/30 | 63 | 19/30 | 46 | 14/30 | 43 | 13/30 | 43 | 12/30 | 12/30 | activity against lethal ip injection of endotoxin [1]: did show some activity; % INH (inhibition of PAF induced platelet aggregation) (PAF receptor; PAF chall conc 5E-9 M): 100.0%; PAF antagonism (in words) (PAF receptor; in vitro platelet aggregation studies): known to be a PAF antagonist; % Survival ([2]; day 7, dose 10 mg/kg i.p.): 43%; No Surv./tot. ([2]; day 7, dose 10 mg/kg i.p.): 12/30
CCCCCCCCCCCCCCOc1ccc(CC(=O)Nc2ccc(C[n+]3csc(C)c3)cc2)cc1.[Br-] [5-Methyl-3-[[4-[[[4-(tetradecyloxy)phenyl]acetyl]amino]phenyl]methyl]thiazolium bromide] | 32 | 32 | 100 | 30/30 | 100 | 30/30 | 80 | 24/30 | 80 | 24/30 | 80 | 24/30 | 80 | 24/30 | 24/30 | % INH (inhibition of PAF induced platelet aggregation) (PAF receptor; PAF chall conc 5.0000E-08 M): 100.0%; % Survival ([2]; day 0, dose 20 mg/kg i.p.): 100%; No Surv./tot. ([2]; day 0, dose 20 mg/kg i.p.): 30/30; % Survival ([2]; day 1, dose 20 mg/kg i.p.): 90%; No Surv./tot. ([2]; day 1, dose 20 mg/kg i.p.): 27/30; % Survival ([2]; day 2, dose 20 mg/kg i.p.): 60%; No Surv./tot. ([2]; day 2, dose 20 mg/kg i.p.): 18/30; % Survival ([2]; day 3, dose 20 mg/kg i.p.): 60%; No Surv./tot. ([2]; day 3, dose 20 mg/kg i.p.): 18/30; % Survival ([2]; day 4, dose 20 mg/kg i.p.): 60%; No Surv./tot. ([2]; day 4, dose 20 mg/kg i.p.): 18/30; % Survival ([2]; day 5, dose 20 mg/kg i.p.): 60%; No Surv./tot. ([2]; day 5, dose 20 mg/kg i.p.): 18/30; % Survival ([2]; day 6, dose 10 mg/kg i.p.): 80%; % Survival ([2]; day 6, dose 20 mg/kg i.p.): 56%; No Surv./tot. ([2]; day 6, dose 20 mg/kg i.p.): 17/30
